The text below walks through data of patent publication US20100204203A1, “Chemical Compounds 637: Pyridopyrimidinediones as PDE4 Inhibitors” (priority 2007, published 2010).

In the experiment the target is recombinant Human Phosphodiesterase B2 (PDE4B2) (Homo sapiens, UniProt Q07343). Put plainly: Human Phosphodiesterase B2 Radiometric Assay (yttrium silicate SPA beads, [3H]cyclic AMP). It counts as biochemical. The note with it: recombinant human PDE4B2, radiometric SPA assay, 8 nM [3H]cyclic AMP; read-out: PDE4B2 pIC50 (converted). Summed up: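 Compounds were preincubated 30 min at 30 °C with 0.1 mg/mL PDE4B2 in 50 mM HEPES pH 7.5, 8.3 mM MgCl2, 1.7 mM EGTA, 0.01% Brij 35. Then 8 nM [3H]cAMP was added for 20 min, stopped with yttrium silicate SPA beads plus 18 mM ZnSO4 capturing product 5′AMP; pIC50 by curve fitting.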
recombinant Human Phosphodiesterase B2 (PDE4B2), sequence (Q07343 1-564 isoform Q07343-2): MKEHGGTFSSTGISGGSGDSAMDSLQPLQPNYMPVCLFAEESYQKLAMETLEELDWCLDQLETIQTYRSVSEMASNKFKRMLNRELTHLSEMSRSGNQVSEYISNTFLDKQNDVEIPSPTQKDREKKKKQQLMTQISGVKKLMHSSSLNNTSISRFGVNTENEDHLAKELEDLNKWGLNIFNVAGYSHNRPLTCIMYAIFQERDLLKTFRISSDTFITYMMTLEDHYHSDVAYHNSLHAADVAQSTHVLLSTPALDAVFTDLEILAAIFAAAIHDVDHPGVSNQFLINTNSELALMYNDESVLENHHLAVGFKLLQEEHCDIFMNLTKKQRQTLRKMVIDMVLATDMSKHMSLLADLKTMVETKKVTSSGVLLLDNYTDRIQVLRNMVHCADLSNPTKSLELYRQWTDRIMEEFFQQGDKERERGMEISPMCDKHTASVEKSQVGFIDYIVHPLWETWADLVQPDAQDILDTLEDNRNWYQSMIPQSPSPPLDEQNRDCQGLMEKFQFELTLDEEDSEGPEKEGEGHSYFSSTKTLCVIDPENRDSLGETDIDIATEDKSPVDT

Regarding `Cc1oncc1C(=O)N[C@H]1CC[C@@H](n2c(=O)c3cc(F)cnc3n(-c3cccc(-c4ccc(CN5CCN(C(C)C)CC5)cc4)c3)c2=O)CC1` [Example 240, N-{cis-4-[6-fluoro-1-{4′-[(4-isopropylpiperazin-1-yl)methyl]biphenyl-3-yl}-2,4-dioxo-1,4-di-hydropyrido[2,3-d]pyrimidin-3(2H)-yl]cyclohexyl}-5-methyl-isoxazole-4-carboxamide], the IC50 was 0.501 nM. For `CCN(CC)CC(=O)N[C@H]1CC[C@@H](n2c(=O)c3cc(F)cnc3n(-c3cccc(-c4ccc(CN5CCN(C(C)C)CC5)cc4)c3)c2=O)CC1` [Example 241, N^2,N^2-diethyl-N-{cis-4-[6-fluoro-1-{4′-[(4-isopropylpiperazin-1-yl)methyl]biphenyl-3-yl}-2,4-dioxo-1,4-dihydro-pyrido[2,3-d]pyrimidin-3(2H)-yl]cyclohexyl} glycinamide], the IC50 is 0.0794 nM. With `Cc1cccc(C(=O)N[C@H]2CC[C@@H](n3c(=O)c4cc(F)cnc4n(-c4cccc(-c5ccc(CN6CCN(C(C)C)CC6)cc5)c4)c3=O)CC2)n1` [Example 242, N-{cis-4-[6-fluoro-1-{4′-[(4-isopropylpiperazin-1-yl)methyl]biphenyl-3-yl}-2,4-dioxo-1,4-di-hydropyrido[2,3-d]pyrimidin-3(2H)-yl]cyclohexyl}-6-methyl-pyridine-2-carboxamide], the IC50 was 0.00631 nM. The result for `Cc1cc(C(=O)N[C@H]2CC[C@@H](n3c(=O)c4cc(F)cnc4n(-c4cccc(-c5ccc(CN6CCN(C(C)C)CC6)cc5)c4)c3=O)CC2)no1` [Example 243, N-{cis-4-[6-fluoro-1-{4′-[(4-isopropylpiperazin-1-yl)methyl]biphenyl-3-yl}-2,4-dioxo-1,4-di-hydropyrido[2,3-d]pyrimidin-3(2H)-yl]cyclohexyl}-5-methyl-isoxazole-3-carboxamide] reads 0.0398 nM; that for `Cc1nc(C(=O)N[C@H]2CC[C@@H](n3c(=O)c4cc(F)cnc4n(-c4cccc(-c5ccc(CN6CCN(C(C)C)CC6)cc5)c4)c3=O)CC2)cs1` [Example 244, N-{cis-4-[6-fluoro-1-{4′-[(4-isopropylpiperazin-1-yl)methyl]biphenyl-3-yl}-2,4-dioxo-1,4-di-hydropyrido[2,3-d]pyrimidin-3(2H)-yl]cyclohexyl}-2-methyl-1,3-thiazole-4-carboxamide], 0.01 nM; that for `CC(C)N1CCN(Cc2ccc(-c3cccc(-n4c(=O)n([C@H]5CC[C@@H](NC(=O)c6ccsc6)CC5)c(=O)c5cc(F)cnc54)c3)cc2)CC1` [Example 245, N-{cis-4-[6-fluoro-1-{4′-[(4-isopropylpiperazin-1-yl)methyl]biphenyl-3-yl}-2,4-dioxo-1,4-di-hydropyrido[2,3-d]pyrimidin-3(2H)-yl]cyclohexyl}thiophene-3-carboxamide], 0.02 nM. For `O=c1c2cc(F)cnc2n(-c2cccc(-c3ccc(O)cc3CN3CCOCC3)c2)c(=O)n1[C@H]1CC[C@@H](NCc2cn3cc(F)ccc3n2)CC1` [Example 246], the IC50 is 0.02 nM. For `Cn1cc(CN[C@H]2CC[C@@H](n3c(=O)c4cc(F)cnc4n(-c4cccc(-c5ccc(O)cc5CN5CCOCC5)c4)c3=O)CC2)c(-c2ccccc2)n1` [Example 247, 6-Fluoro-1-[4′-hydroxy-2′-(morpholin-4-ylmethyl)biphenyl-3-yl]-3-(cis-4-{[(1-methyl-3-phenyl-1H-pyrazol-4-yl)methyl]amino}cyclohexyl)pyrido[2,3-d]pyrimidine-2,4(1H,3H)-dione], the IC50 was 0.2 nM. As for `O=c1c2cc(F)cnc2n(-c2cccc(-c3ccc(O)cc3CN3CCOCC3)c2)c(=O)n1[C@H]1CC[C@@H](NCCCc2ccccc2)CC1` [Example 248, 6-Fluoro-1-[4′-hydroxy-2′-(morpholin-4-ylmethyl)biphenyl-3-yl]-3-{cis-4-[(3-phenylpropyl)amino]cyclohexyl}pyrido[2,3-d]pyrimidine-2,4(1H,3H)-dione], the IC50 was 1.26 nM. As for `O=c1c2cc(F)cnc2n(-c2cccc(-c3ccc(O)cc3CN3CCOCC3)c2)c(=O)n1[C@H]1CC[C@@H](NCC2CC2)CC1` [Example 249, 3-{cis-4-[(Cyclopropylmethyl)amino]cyclohexyl}-6-fluoro-1-[4′-hydroxy-2′-(morpholin-4-ylmethyl)biphenyl-3-yl]pyrido[2,3-d]pyrimidine-2,4(1H,3H)-dione], the figure is 6.31 nM; as for `O=c1c2cc(F)cnc2n(-c2cccc(-c3ccc(O)cc3CN3CCOCC3)c2)c(=O)n1[C@H]1CC[C@@H](NCc2cc(Cl)ccc2O)CC1` [Example 250, 3-{cis-4-[(5-Chloro-2-hydroxybenzyl)amino]cyclohexyl}-6-fluoro-1-[4′-hydroxy-2′-(morpholin-4-ylmethyl)biphenyl-3-yl]pyrido[2,3-d]pyrimidine-2,4(1H,3H)-dione], 0.2 nM; as for `Cc1cc(CN[C@H]2CC[C@@H](n3c(=O)c4cc(F)cnc4n(-c4cccc(-c5ccc(O)cc5CN5CCOCC5)c4)c3=O)CC2)nn1C` [Example 251, 3-(cis-4-{[(1,5-Dimethyl-1H-pyrazol-3-yl)methyl]amino}cyclohexyl)-6-fluoro-1-[4′-hydroxy-2′-(morpholin-4-ylmethyl)biphenyl-3-yl]pyrido[2,3-d]pyrimidine-2,4(1H,3H)-dione], 0.1 nM.

On to `O=c1c2cc(F)cnc2n(-c2cccc(-c3ccc(O)cc3CN3CCOCC3)c2)c(=O)n1[C@H]1CC[C@@H](NCc2cn3c(n2)CCCC3)CC1` [Example 252, 6-Fluoro-1-[4′-hydroxy-2′-(morpholin-4-ylmethyl)biphenyl-3-yl]-3-{cis-4-[(5,6,7,8-tetrahydroimidazo[1,2-a]pyridin-2-ylmethyl)amino]cyclohexyl}pyrido[2,3-d]pyrimidine-2,4(1H,3H)-dione], for which the IC50 was 0.398 nM.

`O=c1c2cc(F)cnc2n(-c2cccc(-c3ccc(O)cc3CN3CCSCC3)c2)c(=O)n1[C@H]1CC[C@@H](NCc2cn3cc(F)ccc3n2)CC1` [Example 253, 6-Fluoro-3-(cis-4-{[(6-fluoroimidazo[1,2-c]pyridin-2-yl)methyl]amino}cyclohexyl)-1-[4′-hydroxy-2′-(thiomorpholin-4-ylmethyl)biphenyl-3-yl]pyrido[2,3-d]pyrimidine-2,4(1H,3H)-dione]: the IC50 was 0.0158 nM. As for `O=c1c2cc(F)cnc2n(-c2cccc(-c3ccc(O)cc3CN3CCCOCC3)c2)c(=O)n1[C@H]1CC[C@@H](NCc2cn3cc(F)ccc3n2)CC1` [Example 254, 6-Fluoro-3-(cis-4-{[(6-fluoroimidazo[1,2-a]pyridin-2-yl)methyl]amino}cyclohexyl)-1-[4′-hydroxy-2′-(1,4-oxazepan-4-ylmethyl)biphenyl-3-yl]pyrido[2,3-d]pyrimidine-2,4(1H,3H)-dione], the IC50 was 0.0316 nM.

As for `O=c1c2cc(F)cnc2n(-c2cccc(-c3ccc(O)cc3CN3CCCCC3)c2)c(=O)n1[C@H]1CC[C@@H](NCc2cn3cc(F)ccc3n2)CC1` [Example 255, 6-Fluoro-3-(cis-4-{[(6-fluoroimidazo[1,2-c]pyridin-2-yl)methyl]amino}cyclohexyl)-1-[4′-hydroxy-2′-(piperidin-1-ylmethyl)biphenyl-3-yl]pyrido[2,3-d]pyrimidine-2,4(1H,3H)-dione], the IC50 is 0.126 nM. `C[C@@H]1CN(Cc2cc(O)ccc2-c2cccc(-n3c(=O)n([C@H]4CC[C@@H](NCc5cn6cc(F)ccc6n5)CC4)c(=O)c4cc(F)cnc43)c2)C[C@H](C)O1` [Example 256]: the IC50 is 0.0158 nM. `COc1ccc(CN[C@H]2CC[C@@H](n3c(=O)c4cc(F)cnc4n(-c4cccc(-c5ccc(CN6CCN(C(C)C)CC6)cc5)c4)c3=O)CC2)cc1OC(C)=O` [Example 257, 5-[({cis-4-[6-Fluoro-1-{4′-[(4-isopropylpiperazin-1-yl)methyl]biphenyl-3-yl}-2,4-dioxo-1,4-dihydropyrido[2,3-d]pyrimidin-3(2H)-yl]cyclohexyl}amino)methyl]-2-methoxyphenyl acetate]: the IC50 is 0.794 nM. As for `COc1ccc(CN[C@H]2CC[C@@H](n3c(=O)c4cc(F)cnc4n(-c4cccc(-c5ccc(CN6CCCOCC6)cc5)c4)c3=O)CC2)cc1Cl` [Example 258, 3-{cis-4-[(3-Chloro-4-methoxybenzyl)amino]cyclohexyl}-6-fluoro-1-[4′-(1,4-oxazepan-4-ylmethyl)biphenyl-3-yl]pyrido[2,3-d]pyrimidine-2,4(1H,3H)-dione], the figure is 2 nM; as for `CC(C)N1CCN(Cc2ccc(-c3cccc(-n4c(=O)n([C@H]5CC[C@@H](NCc6cccc(C#N)c6)CC5)c(=O)c5cc(F)cnc54)c3)cc2)CC1` [Example 259, 3-[({cis-4-[6-fluoro-1-{4′-[(4-isopropylpiperazin-1-yl)methyl]biphenyl-3-yl}-2,4-dioxo-1,4-dihydropyrido[2,3-d]pyrimidin-3(2H)-yl]cyclohexyl}amino)methyl] benzonitrile], 0.631 nM; as for `COc1ccc(CN[C@H]2CC[C@@H](n3c(=O)c4cc(F)cnc4n(-c4cccc(-c5ccc(CN6CCN(C(C)C)CC6)cc5)c4)c3=O)CC2)cc1Cl` [Example 260, 3-{cis-4-[(3-chloro-4-methoxybenzyl)amino]cyclohexyl}-6-fluoro-1-{4′-[(4-isopropyl-piperazin-1-yl)methyl]biphenyl-3-yl}pyrido[2,3-d]pyrimidine-2,4(1H,3H)-dione], 0.501 nM. On to `Cc1ccc(CN[C@H]2CC[C@@H](n3c(=O)c4cc(F)cnc4n(-c4cccc(-c5ccc(CN6CCN(C(C)C)CC6)cc5)c4)c3=O)CC2)s1` [Example 261, 6-fluoro-1-{4′-[(4-isopropylpiperazin-1-yl)methyl]biphenyl-3-yl}-3-(cis-4-{[(5-methyl-2-thienyl)methyl]amino}cyclohexyl)pyrido[2,3-d] pyrimidine-2,4(1H,3H)-dione], for which the IC50 was 0.631 nM.
